Patent US6489320B1, “5, 5-disubstituted-1, 5-dihydro-4, 1-benzoxazepin-2 (3H)-ones useful as HIV reverse transcriptase inhibitors” (Bristol-Myers Squibb Pharma Company, priority 1997, dated 2002)
Where “and” joins values, the source holds several entries; their conditions need not be identical. Identical values can stand only once. Counter-ions that a name gives are not always drawn.

First: O=C1COC(/C=C/C2CC2)(C(F)(F)F)c2cc(Cl)ccc2N1 (stereo not drawn) [Example 5, trans-7-Chloro-5-(2-cyclopropylethenyl)-1,5-dihydro-5-(trifluoromethyl)-4,1-benzoxazepin-2(3H)-one]
Second: C[C@@H]1O[C@](/C=C/C2CC2)(C(F)(F)F)c2cc(Cl)ccc2NC1=O (relative stereo) [Example 6, rel-(3S,5S)-trans-7-Chloro-5-(2-cyclopropylethenyl)-1,5-dihydro-3-methyl-5-(trifluoromethyl)-4,1-benzoxazepin-2(3H)-one]
The melting point of the first is lower: 157 to 158 °C for the first, 171 to 172 °C for the second.

First: CC[C@H]1O[C@](C#CC2CC2)(C(F)(F)F)c2cc(Cl)ccc2NC1=O (relative stereo) [Example 23, rel-(3R,5S)-7-Chloro-5-cyclopropylethynyl-1,5-dihydro-3-ethyl-5-(trifluoromethyl)-4,1-benzoxazepin-2(3H)-one]
Second: CC[C@@H]1O[C@](C#CC2CC2)(C(F)(F)F)c2cc(Cl)ccc2NC1=O (relative stereo) [Example 22, rel-(3S,5S)-7-Chloro-5-cyclopropylethynyl-1,5-dihydro-3-ethyl-5-(trifluoromethyl)-4,1-benzoxazepin-2(3H)-one]
The melting point of the first is lower: 129 to 130 °C for the first, 180 to 181 °C for the second.

First: CC(C)C#CC1(C(F)(F)F)OCC(=O)Nc2ccc(Cl)cc21 (stereo not shown) [Example 3, 7-Chloro-1,5-dihydro-5-(isopropylethynyl)-5-(trifluoromethyl)-4,1-benzoxazepin-2(3H)-one]
Second: CC(C)C#CC1(C(F)(F)F)OCC(=O)Nc2ccc(F)cc21 (stereo not shown) [Example 7, 1,5-Dihydro-7-fluoro-5-isopropylethynyl-5-(trifluoromethyl)-4,1-benzoxazepin-2(3H)-one]
The melting point of the first is higher: 183 to 183.5 °C for the first, 172 to 173 °C for the second.

First: CCC#CC1(C(F)(F)F)OCC(=O)Nc2ccc(Cl)cc21 (stereo not shown) [Example 1, 5-(1-Butynyl)-7-chloro-1,5-dihydro-5-(trifluoromethyl)-4,1-benzoxazepin-2(3H)-one]
Second: O=C1COC(C#Cc2cccnc2)(C(F)(F)F)c2cc(Cl)ccc2N1 (stereo not shown) [Example 24, 7-Chloro-5-(3-pyridylethynyl)-1,5-dihydro-5-(trifluoromethyl)-4,1-benzoxazepin-2(3H)-one]
The melting point of the first is lower: 167 to 168 °C for the first, 219 to 221 °C for the second.

First: CC(C)/C=C/C1(C(F)(F)F)OCC(=O)Nc2ccc(F)c(F)c21 (stereo not drawn) [Example 27, trans-6,7-Difluoro-5-(2-isopropylethenyl)-1,5-dihydro-5-(trifluoromethyl)-4,1-benzoxazepin-2(3H)-one]
Second: CC(C)C#CC1(C(F)(F)F)OCC(=O)Nc2ccc(F)c(F)c21 (stereo not shown) [Example 13, 6,7-Difluoro-1,5-dihydro-5-(isopropylethynyl)-5-(trifluoromethyl)-4,1-benzoxazepin-2(3H)-one]
The melting point of the first is lower: 159 to 160 °C for the first, 192.5 to 193.5 °C for the second.

First: CC[C@@H]1O[C@](/C=C/C2CC2)(C(F)(F)F)c2cc(Cl)ccc2NC1=O (relative stereo) [Example 38, rel-(3S,5S)-trans-7-Chloro-5-(2-cyclopropylethenyl)-1,5-dihydro-3-ethyl-5-(trifluoromethyl)-4,1-benzoxazepin-2(3H)-one]
Second: C=C[C@@H]1O[C@](/C=C/C2CC2)(C(F)(F)F)c2cc(Cl)ccc2NC1=O (relative stereo) [Example 42, rel-(3S,5S)-trans-7-Chloro-5-(2-cyclopropylethenyl)-1,5-dihydro-3-ethenyl-5-(trifluoromethyl)-4,1-benzoxazepin-2(3H)-one]
The melting point of the first is lower: 147 to 147.5 °C for the first, 165.5 to 166.5 °C for the second.

First: CCC[C@@H]1O[C@](C#CC2CC2)(C(F)(F)F)c2cc(Cl)ccc2NC1=O (relative stereo) [Example 14a, rel-(3S,5S)-7-Chloro-5-cyclopropylethynyl-1,5-dihydro-3-propyl-5-(trifluoromethyl)-4,1-benzoxazepin-2(3H)-one]
Second: CCC[C@H]1O[C@](C#CC2CC2)(C(F)(F)F)c2cc(Cl)ccc2NC1=O (relative stereo) [Example 14b, rel-(3R,5S)-7-Chloro-5-cyclopropylethynyl-1,5-dihydro-3-propyl-5-(trifluoromethyl)-4,1-benzoxazepin-2(3H)-one]
The melting point of the first is higher: 191 to 192 °C for the first, 141 °C for the second.

First: CC[C@@H]1O[C@](C#CC2CC2)(C(F)(F)F)c2cc(F)ccc2NC1=O (relative stereo) [Example 49, rel-(3S,5S)-7-Fluoro-5-(2-cyclopropylethynyl)-1,5-dihydro-3-ethyl-5-(trifluoromethyl)-4,1-benzoxazepin-2(3H)-one]
Second: C[C@@H]1O[C@](C#CC2CC2)(C(F)(F)F)c2cc(F)ccc2NC1=O (relative stereo) [Example 48, rel-(3S,5S)-7-Fluoro-5-(2-cyclopropylethynyl)-1,5-dihydro-3-methyl-5-(trifluoromethyl)-4,1-benzoxazepin-2(3H)-one]
The melting point of the first is higher: 186 °C for the first, 184 to 185 °C for the second.

First: CC[C@@H]1O[C@](C#Cc2ccoc2)(C(F)(F)F)c2cc(Cl)ccc2NC1=O (relative stereo) (as salt: sodium) [Example 32, rel-(3S,5S)-7-Chloro-5-(3-furanylethynyl)-1,5-dihydro-3-ethyl-5-(trifluoromethyl)-4,1-benzoxazepin-2(3H)-one]
Second: O=C1COC(C#Cc2ccccc2)(C(F)(F)F)c2cc(Cl)ccc2N1 (stereo not shown) (as salt: sodium) [Example 16, 7-Chloro-5-phenylethynyl-1,5-dihydro-5-(trifluoromethyl)-4,1-benzoxazepin-2(3H)-one]
The melting point of the first is lower: 169 to 170 °C for the first, 190 to 191 °C for the second.

First: C=C[C@@H]1O[C@](C#CC2CC2)(C(F)(F)F)c2c(ccc(F)c2F)NC1=O (relative stereo) [Example 45, rel-(3S,5S)-6,7-Difluoro-5-(2-cyclopropylethynyl)-1,5-dihydro-3-ethenyl-5-(trifluoromethyl)-4,1-benzoxazepin-2(3H)-one]
Second: C[C@@H]1O[C@](C#CC2CC2)(C(F)(F)F)c2c(ccc3c2OCO3)NC1=O (relative stereo) [Example 52, rel-(3S,5S)-6,7-Methylenedioxy-5-(2-cyclopropylethynyl)-1,5-dihydro-3-methyl-5-(trifluoromethyl)-4,1-benzoxazepin-2(3H)-one]
The melting point of the first is lower: 171 to 172 °C for the first, 252 °C for the second.

Compared with `O=C1COC(/C=C/c2ccco2)(C(F)(F)F)c2cc(Cl)ccc2N1` (stereo not drawn) [Example 10, trans-7-Chloro-1,5-dihydro-5-(2-furan-2-yl)ethenyl-5-(trifluoromethyl)-4,1-benzoxazepin-2(3H)-one], `O=C1Nc2ccc(Cl)cc2[C@@](/C=C/C2CC2)(C(F)(F)F)O[C@H]1C1CC1` (relative stereo) [Example 44, rel-(3S,5S)-trans-7-Chloro-5-(2-cyclopropylethenyl)-1,5-dihydro-3-cyclopropyl-5-(trifluoromethyl)-4,1-benzoxazepin-2(3H)-one] is lower in melting point: 199 to 200 °C for the first, 143 to 144 °C for the second.

First: CC[C@@H]1O[C@](C#CC2CC2)(C(F)(F)F)c2c(ccc3c2OCO3)NC1=O (relative stereo) [Example 53, rel-(3S,5S)-6,7-Methylenedioxy-5-(2-cyclopropylethynyl)-1,5-dihydro-3-ethyl-5-(trifluoromethyl)-4,1-benzoxazepin-2(3H)-one]
Second: C[C@@H]1O[C@](/C=C/C2CC2)(C(F)(F)F)c2c(ccc3c2OCO3)NC1=O (relative stereo) [Example 54, rel-(3S,5S)-trans-6,7-Methylenedioxy-5-(2-cyclopropylethenyl)-1,5-dihydro-3-methyl-5-(trifluoromethyl)-4,1-benzoxazepin-2(3H)-one]
The melting point of the first is lower: 201 to 202 °C for the first, 236 to 237 °C for the second.

In the case of `CCC[C@@H]1O[C@](/C=C/C2CC2)(C(F)(F)F)c2cc(Cl)ccc2NC1=O` (relative stereo) [Example 30, rel-(3S,5S)-trans-7-Chloro-5-(2-cyclopropylethenyl)-1,5-dihydro-3-propyl-5-(trifluoromethyl)-4,1-benzoxazepin-2(3H)-one], the melting point was 165 to 167 °C and 167 °C.
